Where two headings read alike, the source gives them in different places. Blank lines part the entries; values can stand above or below the molecule they belong to. Square brackets hold non-standard residues; d marks the D form. Peptide text beside a SMILES is read from it. * marks the point of attachment. 5FAM = O=C1OC2(c3ccc(O)cc3Oc3cc(O)ccc32)c2ccc(C(=O)*)cc21; Abu = CC[C@H](N)C(=O)O
Experiments:
[1] = test system: MDA-MB-231 human breast cancer cell line; experiment: Cell growth inhibition, WST-8 assay, MDA-MB-231; assay type: cell-based; conditions: for IC50: Homo sapiens, MDA-MB-231, 96 h
Procedure: (§1) The effect of the compounds of the present invention on the growth of various cancer cell lines was tested. Cells were seeded in 96-well flat bottom cell culture plates at a density of 3000 cells/well with a tested compound and incubated at 37° C. in an atmosphere of 95% air and 5% CO2 for 4 days. […] Dojindo Molecular Technologies, Inc., Gaithersburg, Md.). […] The absorbance of the samples was measured at 450 nm using a ULTRA Tecan Reader (Molecular Device). […] The ability of SM-406 to inhibit cell growth as a single agent was tested in the MDA-MB-231 breast cancer cell line, SK-OV-3 and OVCAR-4 ovarian cancer cell lines and SK-MeI-2 melanoma cancer cell line. Cells were treated for 4 days. Cell growth was determined using a WST-based assay.

[2] = test system: SK-OV-3 ovarian cancer cell line; experiment: Cell growth inhibition, WST-8 assay, SK-OV-3; assay type: cell-based; conditions: for IC50: Homo sapiens, SK-OV-3, 96 h
Procedure: as §1

[3] = test system: breast cancer MDA-MB-231 cell line; experiment: Induction of cell death, trypan blue exclusion, MDA-MB-231; assay type: cell-based
Procedure: (§2) The ability of YP-337 to induce cell death was tested in the breast cancer MDA-MB-231 and ovarian cancer SK-OV-3 cell lines (Table 4). Cells were treated with YP-337 for 48 hours and cell viability was determined using the trypan blue exclusion assay.

[4] = test system: ovarian cancer SK-OV-3 cell line; experiment: Induction of cell death, trypan blue exclusion, SK-OV-3; assay type: cell-based
Procedure: as §2

[5] = test system: SK-Mel-2 melanoma cancer cell line; experiment: Cell growth inhibition, WST-based assay, SK-Mel-2; conditions: Homo sapiens, SK-MEL-2, 96 h; single agent, 4 days, FIG. 8
Procedure: (§3) The ability of SM-406 to inhibit cell growth as a single agent was tested in the MDA-MB-231 breast cancer cell line, SK-OV-3 and OVCAR-4 ovarian cancer cell lines and SK-MeI-2 melanoma cancer cell line. Cells were treated for 4 days. Cell growth was determined using a WST-based assay.

[6] = test system: OVCAR-4 ovarian cancer cell line; experiment: Cell growth inhibition, WST-based assay, OVCAR-4; conditions: Homo sapiens, OVCAR-4, 96 h; single agent, 4 days, FIG. 8
Procedure: as §3

HL-60 leukemia cell line = experiment: Cell growth inhibition, WST-based assay, HL-60; conditions: Homo sapiens, HL-60, 96 h; single agent, 4 days, FIG. 9
Procedure: (§4) The ability of SM-406 to inhibit cell growth as a single agent was tested in the HL-60 and SR leukemia cell lines. Cells were treated for 4 days. Cell growth was determined using a WST-based assay.

SR leukemia cell line = experiment: Cell growth inhibition, WST-based assay, SR; conditions: 96 h; single agent, 4 days, FIG. 9
Procedure: as §4

[7] = test system: MDA-MB-231 breast cancer xenograft; experiment: MDA-MB-231 breast cancer xenograft model in nude mice; assay type: in vivo
Procedure: The ability of SM-406 (AT-406) to act as anti-tumor agent was tested in the MDA-MB-231 breast cancer xenograft (nude mice) model. SM-406 (AT-406) was administered qd×5 per week for two weeks. […] Body weight loss was less in weekly dosing (<5%) compared to the other dosing schedules.

XIAP BIR3 [8] = molecular target: T1, XIAP BIR3 (Homo sapiens, UniProt P98170); experiment: Fluorescence polarization (FP) based competitive binding assay to XIAP BIR3; parameters: human XIAP (residues 241-356) fused to His-tag; His-tag; conditions: FP binding, XIAP BIR3 30 nM, SM5F 5 nM
Target sequence in this assay (P98170 241-356): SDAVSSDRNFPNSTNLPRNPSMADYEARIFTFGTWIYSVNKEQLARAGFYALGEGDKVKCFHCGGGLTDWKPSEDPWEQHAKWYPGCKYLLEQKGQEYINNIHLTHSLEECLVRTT

cIAP1 BIR3 domain = molecular target: T2, cIAP1 BIR3 domain (Homo sapiens, UniProt Q13490); experiment: FP competitive binding assay to cIAP1 BIR3; conditions: FP tracer; read-out: affinity of tracer for cIAP1
T2 construct: cIAP1 BIR3 domain (residues 253-363); His-tag

cIAP2 BIR3 domain = molecular target: T3, cIAP2 BIR3 domain (Homo sapiens, UniProt Q13489); experiment: FP competitive binding assay to cIAP2 BIR3; conditions: FP tracer; read-out: affinity of tracer for cIAP2
T3 construct: cIAP2 BIR3 domain (residues 238-349); His-tag

ML-IAP BIR3 domain = molecular target: T4, ML-IAP BIR3 domain (Homo sapiens, UniProt Q96CA5); experiment: FP competitive binding assay to ML-IAP BIR3; conditions: FP tracer; read-out: affinity of tracer for ML-IAP
T4 construct: ML-IAP BIR3 domain (residues 63-179), fused to a His-tag; His-tag
T4 sequence (Q96CA5 63-179): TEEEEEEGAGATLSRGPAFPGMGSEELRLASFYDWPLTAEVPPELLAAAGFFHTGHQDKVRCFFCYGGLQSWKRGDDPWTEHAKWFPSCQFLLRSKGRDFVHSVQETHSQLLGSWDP
Procedure: In order to test the binding ability of conformationally constrained Smac mimetics to other IAP proteins (ML-IAP, cIAP1, and cIAP2) binding assay conditions were developed and optimized. The recombinant cIAP1 BIR3 domain (residues 253-363), cIAP2 BIR3 domain (residues 238-349), and ML-IAP BIR3 domain (residues 63-179), fused to a His-tag, were used in the binding assays. Competitive binding assays for other IAP proteins were performed similarly as that described for XIAP BIR3. […] The following protein concentration and tracer were used in the competitive assay: 10 nM cIAP1 and 2 nM SM5F, 25 nM cIAP2 and 2 nM SM5F, 300 nM ML-IAP and 5 nM SM5F
The competitive binding curves of SM-406 and SM-428 to BIR^3 domains of four members of IAP proteins were determined using a fluorescence-polarization-based binding assay. The IAP proteins tested include: (A) XIAP; (B) cIAP1; (C) cIAP2; (D) ML-IAP.

XIAP BIR3 [9] = molecular target: T1, XIAP BIR3; conditions: background statement; cited from earlier work
Target sequence in this assay (P98170 241-356 limits assumed): as the sequence (P98170 241-356) above

[10] = 4 days, WST-8, read-out: MDA-MB-231 IC50
[11] = 4 days, WST-8, read-out: SK-OV-3 IC50

T2 sequence (Q13490 253-363): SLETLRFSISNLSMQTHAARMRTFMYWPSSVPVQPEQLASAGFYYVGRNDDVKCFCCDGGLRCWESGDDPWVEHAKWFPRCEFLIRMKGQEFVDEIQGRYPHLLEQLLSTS
T3 sequence (Q13489 238-349): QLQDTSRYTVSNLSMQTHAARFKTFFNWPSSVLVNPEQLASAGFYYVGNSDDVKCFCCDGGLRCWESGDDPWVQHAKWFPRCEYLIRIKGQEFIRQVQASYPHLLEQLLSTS

Molecule: CN[C@@H](C)C(=O)N[C@H]1CN(C(=O)Cc2ccccc2)CC[C@H]2CC[C@@H](C(=O)NC(c3ccccc3)c3ccccc3)N2C1=O [SM-337]
IC50 ([1]; read-out: MDA-MB-231 IC50 (μM)): < 1 µM
cellular activity in MDA-MB-231 compared with SM-122 ([1]; relative to SM-122): equal to or better than that of SM-122
IC50 ([2]; read-out: SK-OV-3 IC50 (μM)): < 1 µM
cellular activity in SK-OV-3 compared with SM-122 ([2]; relative to SM-122): equal to or better than that of SM-122
Approximate % of dead cells after 48 h, MDA-MB-231 ([3]; 0.1 nM): ~10%
Approximate % of dead cells after 48 h, MDA-MB-231 ([3]; 1 nM): ~35%
Approximate % of dead cells after 48 h, MDA-MB-231 ([3]; 10 nM): ~60%
Approximate % of dead cells after 48 h, MDA-MB-231 ([3]; 100 nM): ~75%
Approximate % of dead cells after 48 h, SK-OV-3 ([4]; 0.1 nM): ~20%
Approximate % of dead cells after 48 h, SK-OV-3 ([4]; 1 nM): ~40%
Approximate % of dead cells after 48 h, SK-OV-3 ([4]; 10 nM): ~65%
Approximate % of dead cells after 48 h, SK-OV-3 ([4]; 100 nM): ~75%

Molecule: CN[C@@H](C)C(=O)N[C@H]1CN(C(=O)CC(C)C)CC[C@H]2CC[C@@H](C(=O)NC(c3ccccc3)c3ccccc3)N2C1=O [SM-406]
IC50 [1, 10]: < 1 µM
IC50 ([1]; single agent, 4 days, FIG. 8, read-out: IC50, cell growth, MDA-MB-231): 0.082 µM
IC50 [2, 11]: < 1 µM
IC50 ([2]; single agent, 4 days, FIG. 8, read-out: IC50, cell growth, SK-OV-3): 0.238 µM
IC50 [5]: 6.64 µM
IC50 [6]: 0.926 µM
IC50 (HL-60 leukemia cell line): 0.058 µM
IC50 (SR leukemia cell line): 7.29 µM
body weight loss ([7]; 200 mg/kg, weekly dosing): < 5%
dose-dependent weight loss ([7]; 100 and 200 mg/kg, qd×5 per week for two weeks): up to 11%
IC50 (XIAP BIR3 [8]): < 0.1 µM

Molecule: CN[C@@H](C)C(=O)N[C@H]1CN(C(=O)CC(C)(C)C)CC[C@H]2CC[C@@H](C(=O)NC(c3ccccc3)c3ccccc3)N2C1=O [SM-415]
IC50 [1, 10]: < 1 µM
IC50 [2, 11]: < 1 µM
IC50 (XIAP BIR3 [8]): < 1 µM

Molecule: CN[C@@H](C)C(=O)N[C@H]1CN(C(=O)Cc2ccccc2)CC[C@H]2CC[C@@H](C(=O)NC(c3ccc(F)cc3)c3ccc(F)cc3)N2C1=O [SM-403]
IC50 [1, 10]: < 1 µM
IC50 [2, 11]: < 1 µM
IC50 (XIAP BIR3 [8]): < 1 µM

B1: mature Smac protein: mature Smac/DIABLO polypeptide, endogenous inhibitor of XIAP (protein, UniProt Q9NR28 22-239, looked up)
Diablo IAP-binding …: LCVPVVANFKKRCFSELIRPWHKTVTIGFGVTLCAVPIAQKSEPHSLSSEALMRRAVSLVTDSTSTFLSQTTYALIEAITEYTKAVYTLTSLYRQYTSLLGKMNSEEEDEVWQVIIGARAEMTSKHQEYLKLETTWMTAVGLSEMAAEAAYQTGADQASITARNHIQLVKLQVEEVHQLSRKAETKLAEAQIEELRQKTQEEGEERAESEQEAYLRED
Kd (XIAP BIR3 [9]): 0.42 µM

Other lines, results leading:

Kd (cIAP1 BIR3 domain): 0.0041 µM
Kd (cIAP2 BIR3 domain): 0.0066 µM
Kd (ML-IAP BIR3 domain): 0.16 µM
Molecule: CC[C@H](N)C(=O)N[C@@H](CCCNC(=N)N)C(=O)N1CCC[C@H]1C(=O)N[C@@H](Cc1ccccc1)C(=O)N[C@@H](CCCCNC(=O)c1ccc2c(c1)C(=O)OC21c2ccc(O)cc2Oc2cc(O)ccc21)C(N)=O [SM5F, AbuRPF-K-(5-Fam)-NH2] (H-[Abu]RPFK(5FAM)-NH2; N-terminus assumed)

IC50 [1, 10]: < 100 µM
IC50 [2, 11]: < 100 µM
IC50 (XIAP BIR3 [8]): < 1 µM
Molecule: CN[C@@H](C)C(=O)N[C@H]1CN(C(=O)C[C@@H](O)C(=O)O)CC[C@H]2CC[C@@H](C(=O)NC(c3ccccc3)c3ccccc3)N2C1=O [SM-413]

IC50 [1, 10]: < 10 µM
IC50 [2, 11]: < 10 µM
IC50 (XIAP BIR3 [8]): < 1 µM
Molecule: CCCN[C@@H](C)C(=O)N[C@H]1CN(C(=O)CC(C)C)CC[C@H]2CC[C@@H](C(=O)NC(c3ccccc3)c3ccccc3)N2C1=O [SM-211]

Reference: patent US8278293B2, “Diazo bicyclic Smac mimetics and the uses thereof” (The Regents of the University of Michigan, priority 2007, dated 2012)
